Assay results as given in patent US20150315188A1, “COMPOUNDS AND METHODS FOR TREATMENT OF HYPERTENSION” (MEDIVATION TECHNOLOGIES, INC., priority 2012, published 2015).

What was measured:
[1] = molecular target: T1, Human adrenergic α1B receptor (Homo sapiens, UniProt P35368); assay: Radioligand binding, adrenergic α1B (Protocol Group B); parameters: purchased Milipore (Millipore); settings: for Percentage inhibition of ligand binding, Adrenergic α1B, 10 nM: 0.01 µM; for Percentage inhibition of ligand binding, Adrenergic α1B, 0.032 μM: 0.032 μM compound; for Percentage inhibition of ligand binding, Adrenergic α1B (0.1 μM) / inhibition at 0.1 µM: 0.1 μM compound; for Percentage inhibition of ligand binding, Adrenergic α1B (0.1 μM) / Percentage inhibition of ligand binding, Adrenergic α1B (0.3 μM) / Ki / inhibition at 0.1 µM / inhibition at 0.3 µM: Protocol Group B; for Percentage inhibition of ligand binding, Adrenergic α1B (0.3 μM) / inhibition at 0.3 µM: 0.3 μM compound; for inhibition at 3.2 µM: 3.2 μM compound, read-out: Percentage inhibition of ligand binding, Adrenergic α1B, 3.2 μM; for Ki: estimated Ki; for inhibition at 0.0032 µM: read-out: Percentage inhibition of ligand binding, Adrenergic α1B, 3.2 nM; for inhibition at 0.1 µM: read-out: Percentage inhibition of ligand binding, Adrenergic α1B (0.1 μM); for inhibition at 0.3 µM: read-out: Percentage inhibition of ligand binding, Adrenergic α1B (0.3 μM); for inhibition at 0.32 µM: read-out: Percentage inhibition of ligand binding, Adrenergic α1B, 0.32 μM; for inhibition at 1 µM: read-out: Percentage inhibition of ligand binding, Adrenergic α1B, 1 μM
T1 sequence (P35368 1-520): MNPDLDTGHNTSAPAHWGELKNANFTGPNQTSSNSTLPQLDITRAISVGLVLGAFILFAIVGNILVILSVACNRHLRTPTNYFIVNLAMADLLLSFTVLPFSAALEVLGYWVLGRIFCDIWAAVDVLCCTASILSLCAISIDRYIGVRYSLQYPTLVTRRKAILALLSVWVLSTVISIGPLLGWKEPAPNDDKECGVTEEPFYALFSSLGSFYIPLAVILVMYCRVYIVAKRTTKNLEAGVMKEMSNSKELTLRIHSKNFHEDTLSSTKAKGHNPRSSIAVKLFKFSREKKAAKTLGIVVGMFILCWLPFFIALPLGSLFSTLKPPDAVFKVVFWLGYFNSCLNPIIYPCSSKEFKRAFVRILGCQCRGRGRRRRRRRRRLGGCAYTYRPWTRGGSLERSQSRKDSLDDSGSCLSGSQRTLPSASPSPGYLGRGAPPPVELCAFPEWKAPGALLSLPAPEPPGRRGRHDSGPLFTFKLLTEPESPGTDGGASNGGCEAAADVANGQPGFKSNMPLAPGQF
Procedure, shortened: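 Values are percent inhibition of specific [3H]prazosin (0.3 nM) binding or estimated Ki, from filtration counting. Human α1B recombinant membranes, Tris-HCl pH 7.4 buffer with MgCl2 and EDTA, 60 min at 25 °C, 1% DMSO vehicle; 10 μM prazosin defined nonspecific binding.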

[2] = molecular target: T2, Human adrenergic α2A receptor (Homo sapiens, UniProt P08913); assay: β-Arrestin GPCR functional assay, adrenergic α2A (Protocol B); format: cell-based; settings: for Percentage inhibition, Adrenergic α2A / inhibition at 0.1 µM / inhibition at 0.3 µM: nor-epinephrine at EC80 (270 nM); for IC50: β-arrestin, antagonist vs nor-epinephrine EC80; for inhibition at 0.1 µM / inhibition at 0.3 µM: read-out: Percentage inhibition, Adrenergic α2A
T2 sequence (P08913 1-465): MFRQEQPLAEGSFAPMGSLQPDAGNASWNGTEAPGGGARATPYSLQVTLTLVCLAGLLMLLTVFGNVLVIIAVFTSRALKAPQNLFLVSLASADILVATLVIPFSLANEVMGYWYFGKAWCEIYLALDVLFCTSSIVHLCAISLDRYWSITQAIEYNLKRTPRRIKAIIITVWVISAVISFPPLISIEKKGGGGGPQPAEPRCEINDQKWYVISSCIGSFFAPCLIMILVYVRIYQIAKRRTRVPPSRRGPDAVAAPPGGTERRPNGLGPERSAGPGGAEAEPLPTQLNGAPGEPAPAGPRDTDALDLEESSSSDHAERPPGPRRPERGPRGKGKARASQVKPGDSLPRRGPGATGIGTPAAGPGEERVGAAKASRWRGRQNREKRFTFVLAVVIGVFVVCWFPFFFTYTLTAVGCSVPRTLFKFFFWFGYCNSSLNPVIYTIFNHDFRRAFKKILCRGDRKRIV
Description: To evaluate the activity of compounds in β-Arrestin GPCR functional assays, recombinant CHO cell line (DiscoveRX), over expressed with human adrenergic α2A receptor were used. The experiment was done with kit of DiscoveRX as per recommended protocol of the supplier. Cells were harvested from culture flask using cell dissociation solution (CDS) and plated at a density of 12,000 cells/well in CP reagent (supplied with the kit) in a half area 96-well white polystyrene plate. After 24 h incubation at 37° C., compounds at various concentrations in 1% (final) DMSO were charged to the cells for 30 min at 37° C. Active nor-epinephrine (-NE) at its EC80 concentrations (270 nM) were then added to the cells and incubated for another 90 min at 37° C. Detection mix was prepared by mixing of Path Hunter cell assay buffer, Emerald II solution and Galactone star solution in a ratio of 19:5:1 and incubated with the cells for 60 min at RT in the dark. The reading was taken in Envision at luminescence mode. Biochemical assay results are presented as the percent Inhibition in Table B2a, or IC50 values in Table B2b.

[3] = molecular target: T3, Human adrenergic α2B receptor (Homo sapiens, UniProt P18089); assay: β-Arrestin GPCR functional assay, adrenergic α2B (Protocol B); format: cell-based; settings: for IC50: β-arrestin, antagonist vs nor-epinephrine EC80, read-out: IC50 Adrenergic α2B
T3 sequence (P18089 1-450): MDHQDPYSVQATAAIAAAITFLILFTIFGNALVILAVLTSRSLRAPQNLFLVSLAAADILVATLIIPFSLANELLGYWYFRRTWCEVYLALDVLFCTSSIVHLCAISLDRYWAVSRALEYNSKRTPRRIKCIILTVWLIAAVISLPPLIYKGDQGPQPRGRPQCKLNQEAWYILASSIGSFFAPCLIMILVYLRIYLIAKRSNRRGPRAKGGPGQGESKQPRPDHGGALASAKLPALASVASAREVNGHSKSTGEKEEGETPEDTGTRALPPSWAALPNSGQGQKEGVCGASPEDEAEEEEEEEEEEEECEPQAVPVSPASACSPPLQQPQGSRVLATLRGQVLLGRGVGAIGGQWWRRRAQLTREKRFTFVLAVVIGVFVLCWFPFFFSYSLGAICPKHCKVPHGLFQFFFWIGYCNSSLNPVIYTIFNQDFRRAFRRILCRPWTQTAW
Procedure, shortened: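 CHO cells overexpressing human α2B (PathHunter β-arrestin), 12,000 per well, 24 h at 37° C; compounds in 1% DMSO 30 min, then 50 nM norepinephrine (EC80) 90 min at 37° C.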

[4] = 10 nM compound, concentration series
[5] = 10 nM compound, nor-epinephrine at EC80 (50 nM)
[6] = 30 nM compound, nor-epinephrine at EC80 (50 nM)
[7] = 0.1 μM compound, nor-epinephrine at EC80 (50 nM)
[8] = 3.2 nM compound, concentration series
[9] = 0.32 μM compound, concentration series
[10] = 1 μM compound, concentration series
[11] = 0.1 μM compound, nor-epinephrine at EC80 (50 nM), read-out: Percentage inhibition, Adrenergic α2B

| Percentage inhibition of ligand binding, Adrenergic α1B (0.1 μM) [1] | Percentage inhibition of ligand binding, Adrenergic α1B (0.3 μM) [1] | Ki [1] | IC50 [2] | IC50 [3] | inhibition at 0.1 µM [1] | inhibition at 0.3 µM [1] | SMILES | other results |
| --- | --- | --- | --- | --- | --- | --- | --- | --- |
| 60% | 85% | 37.5 nM | 5010 nM | 52 nM | – | – | Cc1cc(C)c2c(c1)c1c(n2CC(C)(O)c2ccncc2)CCN2CCCC12 (single isomer, unassigned) [19b] | Percentage inhibition of ligand binding, Adrenergic α1B, 1 nM ([1]; 1 nM compound, concentration series, 0.001 µM): 3%; Percentage inhibition of ligand binding, Adrenergic α1B, 3.2 nM ([1]; 3.2 nM compound, concentration series, 0.0032 µM): 6%; Percentage inhibition of ligand binding, Adrenergic α1B, 10 nM [1, 4]: 1%; Percentage inhibition of ligand binding, Adrenergic α1B, 0.032 μM ([1]; concentration series): 15%; Percentage inhibition of ligand binding, Adrenergic α1B, 0.32 μM ([1]; 0.32 μM compound, concentration series, 0.32 µM): 76%; Percentage inhibition of ligand binding, Adrenergic α1B, 1 μM ([1]; 1 μM compound, concentration series, 1 µM): 87%; inhibition at 3.2 µM ([1]; concentration series): 92%; Percentage inhibition, Adrenergic α2A ([2]; 0.1 μM compound): 24%; Percentage inhibition, Adrenergic α2A ([2]; 0.3 μM compound): 20%; Percentage inhibition, Adrenergic α2B [3, 5]: 15%; Percentage inhibition, Adrenergic α2B [3, 6]: 34%; Percentage inhibition, Adrenergic α2B [3, 7]: 86% |
| 29% | 55% | 111 nM | 3570 nM | 119 nM | – | – | CCOC(Cn1c2c(c3cc(C)ccc31)CN(C)CC2)c1ccncc1 (single isomer, unassigned) [43a] | – |
| – | – | 56.4 nM | – | 382 nM | 53% | 65% | Cc1ccc2c(c1)c1c(n2CC(O)c2ccncc2)CC[N+]2([O-])CCCC12 (stereo not drawn) [compound 23, 7-(2-hydroxy-2-(pyridin-4-yl)ethyl)-10-methyl-1,2,3,4,5,6,7,11c-octahydroindolizino[7,8-b]indole 4-oxide] | inhibition at 0.0032 µM [1, 8]: 21%; inhibition at 0.01 µM ([1]; 10 nM compound, concentration series, read-out: Percentage inhibition of ligand binding, Adrenergic α1B, 10 nM): 22%; inhibition at 0.03 µM ([1]; 0.03 μM compound, concentration series, read-out: Percentage inhibition of ligand binding, Adrenergic α1B, 0.03 μM): 32%; inhibition at 0.32 µM [1, 9]: 64%; inhibition at 1 µM [1, 10]: 72%; inhibition at 3.2 µM ([1]; concentration series): 85%; inhibition at 10 µM ([1]; 10 μM compound, concentration series, read-out: Percentage inhibition of ligand binding, Adrenergic α1B, 10 μM): 93%; inhibition at 0.1 µM ([2]; 0.1 μM compound): 1%; inhibition at 0.3 µM ([2]; 0.3 μM compound): 1%; inhibition at 0.01 µM ([3]; 10 nM compound, nor-epinephrine at EC80 (50 nM), read-out: Percentage inhibition, Adrenergic α2B): 10%; inhibition at 0.03 µM ([3]; 30 nM compound, nor-epinephrine at EC80 (50 nM), read-out: Percentage inhibition, Adrenergic α2B): 12%; inhibition at 0.1 µM [3, 11]: 27% |
| 82% | – | 7.5 nM | 1260 nM | 18 nM | – | 93% | Cc1cc(C)c2c(c1)c1c(n2CC(C)(O)c2ccncc2)CCN2CCCC12 (single isomer, unassigned) [19a] | inhibition at 0.00032 µM ([1]; 0.32 nM compound, concentration series, read-out: Percentage inhibition of ligand binding, Adrenergic α1B, 0.32 nM): 13%; inhibition at 0.001 µM ([1]; 1 nM compound, concentration series, read-out: Percentage inhibition of ligand binding, Adrenergic α1B, 1 nM): 2%; inhibition at 0.0032 µM [1, 8]: 7%; Percentage inhibition of ligand binding, Adrenergic α1B, 10 nM [1, 4]: 24%; Percentage inhibition of ligand binding, Adrenergic α1B, 0.032 μM ([1]; concentration series): 61%; inhibition at 0.32 µM [1, 9]: 96%; inhibition at 1 µM [1, 10]: 95%; inhibition at 0.1 µM ([2]; 0.1 μM compound): 13%; inhibition at 0.3 µM ([2]; 0.3 μM compound): 23%; Percentage inhibition, Adrenergic α2B [3, 5]: 33%; Percentage inhibition, Adrenergic α2B [3, 6]: 71%; inhibition at 0.1 µM [3, 11]: 101% |
| 40% | 71% | 60 nM | 2390 nM | 255 nM | – | – | Cc1ccc2c(c1)c1c(n2CC(OC2CCCC2)c2ccncc2)CCN(C)C1 (single isomer, unassigned) [35a] | – |
| – | – | 145 nM | 11400 nM | 87 nM | 24% | 47% | CC(O)(Cn1c2c(c3cc(F)ccc31)C1CCCN1CC2)c1ccncc1 (single isomer, unassigned) [31a] | – |
| – | – | – | 2670 nM | 34 nM | 28% | 57% | Cc1cc(F)c2c(c1)c1c(n2CC(C)(O)c2cccnc2)CCN2CCCC12 (single isomer, unassigned) [79b] | – |
| 64% | 81% | – | 295 nM | 9.27 nM | – | – | OC(Cn1c2c(c3cc(Cl)cc(F)c31)C1CCCN1CC2)c1ccncc1 (single isomer, unassigned) [135b] | – |
| – | – | 3.7 nM | 713 nM | 14 nM | 89% | 96% | Cc1cc2c3c(n(CC(C)(O)c4ccncc4)c2cc1Cl)CCN1CCCC31 (single isomer, unassigned) [50a] | – |
| 43% | 68% | 38.2 nM | 1780 nM | 18.7 nM | – | – | Cc1cc(Cl)c2c(c1)c1c(n2CC(C)(O)c2ccncc2)CCN2CCCC12 (single isomer, unassigned) [91b] | – |
| 71% | 84% | 25.9 nM | 491 nM | 18 nM | – | – | Cc1ccc2c(c1)c1c(n2CC(C)(O)c2ccnc(F)c2)CCN2CCCC12 (single isomer, unassigned) [48b] | – |
| – | – | 35 nM | 806 nM | 12 nM | – | – | Cc1ccc2c(c1)c1c(n2CC(C)(O)c2ccncc2)CCN2CCCC12 (single isomer, unassigned) [13b] | Percentage inhibition, Adrenergic α2A ([2]; 0.1 μM compound): 23%; Percentage inhibition, Adrenergic α2A ([2]; 0.3 μM compound): 30%; Percentage inhibition, Adrenergic α2B [3, 5]: 4%; Percentage inhibition, Adrenergic α2B [3, 6]: 30%; Percentage inhibition, Adrenergic α2B [3, 7]: 102% |
